Legend:
[1] = biological target: T1, full length Grk5 (Homo sapiens, UniProt P34947); assay: GRK5 kinase activity assay (ADP Glo Kinase Assay); type: biochemical; conditions: Table 5
T1 construct: 2 µl 6/2 fold concentrated full length Grk5 (Millipore, #14-714) in reaction buffer is added to each well; purchased Millipore 14-714
Protocol: Increasing concentrations of GRK5 are incubated together with 100 µM ATP in the absence and presence of 10 µM casein in a reaction buffer. Within this incubation non-phosphorylated casein is converted into phosphorylated casein and ATP is converted into ADP. Thereafter nonconverted ATP is digested into AMP by addition of the ADP-Glo™Reagent. Subsequently the ADP that is produced by GRK5 activity is phosphorylated back to ATP by addition of Promega Kinase Detection Reagent. These ATP levels serve as measure for the GRK5 activity and are quantified by a luciferase/luciferin reaction.
Km(ATP) was determined by measuring the GRK5 activity at increasing ATP concentrations.
The reaction buffer used was composed of: 20 mM MES pH 6.0, 1 mM DTT, 10 mM MgCl2, 0.01 % Tween20 and the reaction volume was 6µl.
Firstly 4 µl 6/4 fold concentrated substrate and 6/4 fold concentrated ATP in 1 fold concentrated reaction buffer are added to each well of the assay plate. Subsequently 67 nl 1000 fold concentrated test compound in 100 % DMSO are added to each well except to C- and C+ wells using pin tool. Then 67 nl 100 % DMSO are pipetted to C- (no kinase, no compound) and C+ (no compound) wells using pin-tool and 2 µl reaction buffer are added to C- wells. […] Finally, after incubation for 40 min at room temperature the luminescence intensity was measured. […]

[2] = test system: beta-TC6; assay: MTT cytotoxicity assay (cell viability and proliferation); type: cell-based, mouse; conditions: beta-TC6, 72 h treatment, concentrations up to 10 µM
Protocol: Using a MTT approach, we determined the effect on cell viability and proliferation of beta-TC6 and C2C12 cells to display potential cytotoxicity of the compounds according to the invention in vitro after a 72 h treatment.
For MTT (3-(4,5-dimethylthiazol-2-yl)-2,5-diphenyl tetrazolium bromide) transformation, 1/5 of total volume of a 5 mg/mL MTT stock solution was added to the cells as well as control wells and incubated at 37 °C, 5 % CO2 (v/v) for 1 h. Then 1/2 of total volume of MTT-stop solution was added and plates were incubated overnight in the dark at 25 °C. The optical density (OD) was measured using a multiwell spectrophotometer at a wavelength of 570 nm.

T1 sequence (P34947 whole entry): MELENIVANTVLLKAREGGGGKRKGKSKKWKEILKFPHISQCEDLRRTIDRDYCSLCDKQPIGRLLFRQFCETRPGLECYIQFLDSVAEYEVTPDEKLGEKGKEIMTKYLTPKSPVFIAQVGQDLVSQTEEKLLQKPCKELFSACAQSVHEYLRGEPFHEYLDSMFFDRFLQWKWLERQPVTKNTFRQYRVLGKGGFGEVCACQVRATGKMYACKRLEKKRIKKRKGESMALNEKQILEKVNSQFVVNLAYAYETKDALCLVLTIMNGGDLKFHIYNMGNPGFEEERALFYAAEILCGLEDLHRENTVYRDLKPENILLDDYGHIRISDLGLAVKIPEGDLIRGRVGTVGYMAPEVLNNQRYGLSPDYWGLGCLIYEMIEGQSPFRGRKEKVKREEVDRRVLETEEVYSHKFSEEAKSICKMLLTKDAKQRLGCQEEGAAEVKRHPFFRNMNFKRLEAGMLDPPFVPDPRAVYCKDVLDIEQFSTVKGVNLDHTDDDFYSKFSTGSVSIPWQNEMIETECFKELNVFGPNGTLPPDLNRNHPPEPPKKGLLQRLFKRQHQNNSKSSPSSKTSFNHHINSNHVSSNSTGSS

Structure (SMILES) | IC50 [1] [µM] | toxic effect [2]
NC(=O)c1ccc(-c2cnc3ccc(Cc4ccc(F)cc4)nn23)cc1 [compound 1, 4-[6-[(4-fluorophenyl)methyl]imidazo[1,2-b]pyridazin-3-yl]benzamide] | 20 to 80 | 
COc1cc(-c2ccc3ncc(-c4cccnc4)n3n2)cc(OC)c1OC [compound 10, 3-(3-pyridyl)-6-(3,4,5-trimethoxyphenyl)imidazo[1,2-b]pyridazine] |  | no toxic effect at all
